This assay deals with T1, Signal transducer and activator of transcription 3 [702-738,740-752] (Homo sapiens, UniProt P40763).
T1 construct: 702-738,740-752
T1 sequence (P40763 as listed by the source): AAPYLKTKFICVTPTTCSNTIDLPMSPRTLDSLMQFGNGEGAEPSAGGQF
In words: STAT3 activation reporter response, dose response, cell-based (AID 1398).
As to `CCCc1cc(C(=O)Nc2cc(OC)c(Cl)cc2OC)no1` [MLS000116379], the IC50 (as a rule, the point on the concentration scale where inhibition reaches its midpoint) was above 229 nM. Compound `COC(=O)c1sccc1NC(=O)c1cc2c(s1)CCCC2` [MLS000051746] yielded an IC50 above 2060 nM.

`COc1cc(NC(=O)c2cc(C(C)C)on2)c(OC)cc1Cl` [MLS000520019]: the IC50 was above 229 nM. Compound `Cn1c(CNc2ccccc2O)nc2ccccc21` [2-[(1-methyl-2-benzimidazolyl)methylamino]phenol] came in with an IC50 above 8.49 nM. Then `CCCSc1nnc(Sc2nnnn2-c2ccccc2)s1` [2-(1-phenyltetrazol-5-yl)sulfanyl-5-propylsulfanyl-1,3,4-thiadiazole], with above 6190 nM; and `Nc1nc(-c2ccc(Cl)cc2)nn1C(=O)c1cccs1` [MLS000706198], with above 688 nM. Take `CC(=O)Nc1c(Cl)n(C(C)=O)c2ccccc12` [MLS000104263]: the IC50 is above 76 nM. In turn, `COC(=O)C(NC=O)C(O)(Cc1ccccc1)C(F)(F)F` (stereo not given) [3-benzyl-4,4,4-trifluoro-2-formamido-3-hydroxy-butyric acid methyl ester] yielded an IC50 above 688 nM. Then `COc1ccccc1NC(=O)c1[nH]c(C)c(C(C)=O)c1C` [SMR000066913], with above 25.5 nM; and `Cc1nonc1CC(=O)N1CCc2c([nH]c3ccccc23)C1c1ccccc1F` (stereo not given) [1-[1-(2-fluorophenyl)-1,3,4,9-tetrahydropyrido[3,4-b]indol-2-yl]-2-(4-methyl-1,2,5-oxadiazol-3-yl)ethanone], with above 2060 nM; and `COc1ccccc1C(=O)Nc1cc(Cl)ccc1O` [MLS000078111], with above 2060 nM. The value for `COc1cc(NC(=O)c2cc(C3CC3)on2)c(OC)cc1Cl` [MLS000522376] was above 76 nM; that for `Cc1cccc(NC(=O)c2cc([N+](=O)[O-])ccc2Cl)c1O` [2-chloranyl-N-(3-methyl-2-oxidanyl-phenyl)-5-nitro-benzamide] was above 6190 nM; that for `Cn1nc(-c2ccc(Cl)cc2)c2cc(C(=O)NCCCN3CCCC3)sc21` [3-(4-chlorophenyl)-1-methyl-N-(3-pyrrolidin-1-ylpropyl)thieno[2,3-c]pyrazole-5-carboxamide] was above 6190 nM.

For `Cc1[nH]n(-c2ccccc2)c(=O)c1C=C1C(=O)NC(=O)NC1=O`, the IC50 was above 55700 nM.

These data come from BindingDB's records for doi:10.7270/Q2S46QBK (The Scripps Research Institute Molecular Screening Center, 2008).
